This is an account of results in patent US20150031056A1, “DEVELOPMENT OF SPECIFIC IMMUNOASSAY CRITICAL REAGENTS FOR PHARMACOKINETIC ASSESSMENTS OF PEPTIDE POLYMERS IN PRECLINICAL AND CLINICAL MATRICES” (priority 2011, published 2015).

“And” between values parts separate entries of the source, which are not always exact repeats. Identical values can stand only once.

This data set is described as follows: Pilot PK study in Sprague Dawley rats (serum Copaxone by ELISA). The format is in vivo. The settings on record: Copaxone 20 mg/kg B.wt. On the procedure: A series of serum samples, each containing Copaxone spiked at known concentration and forming a set of calibrator standards to generate a calibration curve to quantify Copaxone in the serum samples of the given species was made in the serum with Copaxone at levels […], 30000 ng/ml, 4000 ng/ml, 2000 ng/ml, 1000 ng/ml, 500 ng/ml, 250 ng/ml, 125 ng/ml, 62.5 ng/ml, 31.3 ng/ml, 7.8 ng/ml and 3.9 ng/ml in neat serum.
ELISA plate is precoated with Polyclonal Rabbit Anti Copaxone antibodies and the appropriately diluted serum samples constituting the calibrator standards and samples for analysis were incubated for binding to the coated Anti Copaxone antibodies and unbound and poorly bound serum components were separated during washing with PBST (Phosphate buffered saline with 0.1% tween 20).The bound Copaxone was detected using biotin labeled Polyclonal Rabbit Anti Copaxone antibodies and streptavidin Alkaline phosphatase conjugate. Substrate was added to the wells and the blue colored signal obtained at 640 nm for the test samples is compared with the calibration curve prepared from concentration-response relationship of the calibrators to determine the unknown concentration of Copaxone in the serum samples.
Three male Sprague Dawley rats were dosed with Copaxone at 20 mg per kg body weight with a dosing volume of […] at the dose concentration of 20mg/ml per day. The dosage was selected based on minimum feasible dose (based on dose volume of 1 ml per kg) for the given strength of 20 mg/ml. Each animal was weighed and dosed with Copaxone @ 20 mg/kg B.wt. Blood samples were collected in 10 μl of Protease inhibitor from each animal at the time point 5 min, 10 min, 15 min, 20 min, 30 min, 45 min, 1, 2, 3, 4, 6, 10 and 24 hours. The blood samples were stored on wet ice for serum separation. The serum was separated and stored at −80° C. till the shipment. The samples till 24 hours were shipped in Dry Ice […].

The mark [1] stands for this setting: Mean of three male Sprague Dawley rats.
[2] abbreviates: individual male Sprague Dawley rat (Rat 1, 2, 3).

As usually defined, the Cmax is the maximum level reached in the sampled fluid or tissue. Usually Tmax stands for the time at which the peak concentration occurs. In the case of Glatiramer acetate [Copaxone], under setting [1], the AUC0-inf is 25507 ng·min/mL, the AUC0-t worked out at 25211.81 ng·min/mL, the “AUC % Extrap_obs (Should be < 5%)” value is recorded as 1.24% and the Cmax was 1824.12 ng/mL. Also, under setting [1], the T1/2 came out at 27.45 min and the Tmax was 11.67 min. For the same substance, under setting [2], the AUC0-inf is 25654.06 ng·min/mL and 15705.6 ng·min/mL and 35161.34 ng·min/mL; the AUC0-t was 25491.53 ng·min/mL and 15411.63 ng·min/mL and 34732.28 ng·min/mL; the “AUC % Extrap_obs (Should be < 5%)” value was 0.63% and 1.87% and 1.22%; the Cmax is 968.69 ng/mL and 510.79 ng/mL and 3992.88 ng/mL. Moreover, the time of peak concentration (Tmax) under setting [2] is 15 min and 10 min. For the same substance, the T1/2 (individual male Sprague Dawley rat (Rat 1, 2, 3), samples 5 min to 24 hours) was 31.18 min and 23.39 min and 27.79 min.
